One assay concerns the target USP1 enzyme (Homo sapiens, UniProt O94782). The assay can be described thus: Biochemical analysis of USP1 enzyme activity (ubiquitin-rhodamine 110 deubiquitination, fluorescence). The note with it: ubiquitin-rhodamine 110 substrate, 10 minutes pre-incubation, 30 minutes reaction at room temperature; read-out: Enzyme activity IC50 grade. The method, then:
In this experimental example, the inhibitory effect of the compounds according to the present invention and the positive control compound on USP1 deubiquitinating activity was tested using a biochemical enzymatic assay. Ubiquitin-rhodamine 110 was used as a substrate for measuring deubiquitinating activity. This substrate compound is a substance in which rhodamine 110 is linked to the glycine residue at the C-terminus of ubiquitin by an amide bond. When this amide bond is cleaved by the deubiquitinating activity, a fluorescent signal is counted.
Subsequently, analytical buffer solution (50 mM hydroxyethylpiperazineethanesulfonic acid (HEPES) containing USP1 enzyme, 100 mM NaCl, 2 mM tris(2-carboxyethyl)phosphine (TCEP), and 100 µg/mL bovine serum albumin (BSA)) were added to each well of the plate and incubated at room temperature for 10 minutes. Subsequently, analytical y buffer solution containing ubiquitin-rhodamine 110 was added to each well and reacted at room temperature for 30 minutes.

Another assay has as its system MDA-MB-436. The assay can be described thus: Cell survival analysis (CellTiter-Glo, 10 days culture). The format is cell-based. The note with it: Homo sapiens, 240 h; MDA-MB-436 cell line, cultured for 10 days, CellTiter-Glo; read-out: Cell growth IC50 grade. The method, then: In this experimental example, the cell growth inhibitory effect of compounds according to the present invention and positive control compounds in tumor cell lines was examined.
MDA-MB-436 (ATCC, #HTB-130) cell line was cultured in cell culture medium (Leibovitz's L-15 (GIBCO catalog no. 11415064) + 10 µg/mL insulin (Yeasen catalog no. 40112ES25) + 16 µg/mL glutathione (GIBCO catalog no. 25030-081) + 10% fetal bovine serum (FBS) (Excell Bio catalog no. FSP500)). 3,000 MDA-MB-436 cells were plated per well in a 96-well plate and cultured for 1 day at 37°C in 5% CO2. […] The cells were then cultured in a cell incubator for 10 days, and the cell culture medium containing the compound was replaced on the 5th day of culture. Cell survival rate was analyzed for luminescence using the Promega CellTiter-Glo Luminescent Cell Viability Assay Kit (Promega catalog number G7573), and the luminescence was measured using a PerkinElmer EnVision instrument. The percentage of cell growth inhibition rate was calculated from the measured relative luminescence unit (RLU) as follows. Inhibition rate = 1−((RLU compound−RLU blank)/(RLU control−RLU blank)) × 100 [formula]
(Cellular ATP, detected with luciferase, serves as a proxy for viable cell number.)

A further assay has as its system MDA-MB-436 cells. The assay can be described thus: BRCA1 synthetic lethality assay, colony formation with crystal violet staining, BRCA1 mutant cells. The assay is classed as cell-based. The note with it: cultured for 21 days. The method, then:
(§1) In this experimental example, whether the compound according to the present invention had synthetic lethal efficacy with BRCA1 activity was tested by examining the colony formation of tumor cells. MDA-MB-436 cells (ATCC, #HTB-130), a triple-negative breast cancer cell line with reduced BRCA1 activity due to BRCA1 mutation, and MCF-10A cell line (ATCC, #CRL-10317), which has wild-type BRCA1/2 genes and is used as a model of normal breast cells, were cultured in their respective culture media (MDA-MB-436: L-15 +10 […] + 10% fetal bovine serum (FBS), MCF-10A: MEGM + 100 ng/mL cholera toxin), and then seeded in 6-well plates at a concentration of 10,000 cells per well for the MDA-MB-436 cells and 120 cells per well for the MCF-10A cell line. […] The crystal violet stained in the cells was extracted by treating the cells with 500 µL of 10% acetic acid for 20 minutes at room temperature for quantitative analysis. 150 µL of the extracted crystal violet was placed in two wells of a 96-well plate, and the absorbance was measured at 565 nm. The absorbance was quantified relative to the absorbance value of a blank sample containing only DMSO but not the compound of the present invention.

The test system of another assay is MCF-10A cell line. The assay can be described thus: BRCA1 synthetic lethality assay, colony formation with crystal violet staining, BRCA1/2 wild-type cells. The format is cell-based. The protocol: as §1

Sequence of USP1 enzyme (O94782 whole entry): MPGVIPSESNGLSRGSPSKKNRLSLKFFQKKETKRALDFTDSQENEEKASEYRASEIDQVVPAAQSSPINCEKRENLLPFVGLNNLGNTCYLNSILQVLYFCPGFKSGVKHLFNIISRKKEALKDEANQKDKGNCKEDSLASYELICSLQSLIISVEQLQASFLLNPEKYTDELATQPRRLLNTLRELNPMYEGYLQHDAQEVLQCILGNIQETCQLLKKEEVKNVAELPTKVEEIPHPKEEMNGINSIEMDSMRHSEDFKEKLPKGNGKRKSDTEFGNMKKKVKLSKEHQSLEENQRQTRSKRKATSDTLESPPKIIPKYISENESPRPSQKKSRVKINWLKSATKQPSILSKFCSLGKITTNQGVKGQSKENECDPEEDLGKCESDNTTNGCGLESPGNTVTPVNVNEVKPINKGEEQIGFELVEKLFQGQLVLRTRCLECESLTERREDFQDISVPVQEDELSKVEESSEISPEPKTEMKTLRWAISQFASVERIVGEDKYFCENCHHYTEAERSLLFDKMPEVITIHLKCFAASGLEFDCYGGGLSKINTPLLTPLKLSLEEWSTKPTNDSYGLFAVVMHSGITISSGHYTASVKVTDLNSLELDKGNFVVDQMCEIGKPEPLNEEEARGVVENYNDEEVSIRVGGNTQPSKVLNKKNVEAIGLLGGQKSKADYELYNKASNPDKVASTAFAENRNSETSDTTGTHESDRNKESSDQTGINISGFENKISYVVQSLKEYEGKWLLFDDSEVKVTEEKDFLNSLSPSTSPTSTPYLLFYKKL
Sequence of USP1 enzyme (Q8TAF3 whole entry partner): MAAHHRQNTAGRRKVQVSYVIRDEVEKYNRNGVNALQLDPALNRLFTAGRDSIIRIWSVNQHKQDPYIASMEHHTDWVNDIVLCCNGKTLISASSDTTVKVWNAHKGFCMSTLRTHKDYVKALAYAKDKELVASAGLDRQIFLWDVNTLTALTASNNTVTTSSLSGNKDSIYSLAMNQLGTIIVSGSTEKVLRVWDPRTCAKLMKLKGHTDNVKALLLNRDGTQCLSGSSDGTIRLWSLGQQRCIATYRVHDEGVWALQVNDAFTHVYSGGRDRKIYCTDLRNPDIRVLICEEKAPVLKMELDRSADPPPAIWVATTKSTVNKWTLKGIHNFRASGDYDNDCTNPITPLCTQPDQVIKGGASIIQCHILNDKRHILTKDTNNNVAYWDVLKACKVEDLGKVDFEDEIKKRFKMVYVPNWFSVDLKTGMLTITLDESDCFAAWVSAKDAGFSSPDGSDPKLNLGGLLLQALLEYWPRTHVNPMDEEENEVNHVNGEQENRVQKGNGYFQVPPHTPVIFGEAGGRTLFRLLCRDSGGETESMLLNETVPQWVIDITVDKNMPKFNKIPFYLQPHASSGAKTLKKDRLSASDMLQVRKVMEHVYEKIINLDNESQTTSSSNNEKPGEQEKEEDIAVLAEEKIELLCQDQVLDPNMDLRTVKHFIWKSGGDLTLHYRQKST

`COc1cccc(C2CC2)c1-c1ncc(P(C)(C)=O)c(NCc2ccc(-c3nc(C(F)(F)F)cn3C)cc2)n1` [Example 1, (2-(2-cyclopropyl-6-methoxyphenyl)-4-((4-(1-methyl-4-(trifluoromethyl)-1H-imidazol-2-yl)benzyl)amino)pyrimidin-5-yl)dimethylphosphine oxide]: the IC50 (as a rule, the concentration needed to halve the response being measured) on USP1 enzyme lay within 50 to 100 nM; in the assay with MDA-MB-436 it was 100 to 500 nM. The “crystal violet extraction amount” value is listed as “less than one-fifth of that of the DMSO blank” in the assay with MDA-MB-436 cells (MDA-MB-436 cells with reduced BRCA1 activity, absorbance at 565 nm relative to DMSO blank, Fig. 1 A) and “no different from that of the DMSO blank” in the assay on MCF-10A cell line (MCF-10A cells with wild-type BRCA1/2, cultured for 21 days, absorbance at 565 nm relative to DMSO blank, Fig. 1 A). For the same molecule, the colony formation result in the assay with MDA-MB-436 cells (MDA-MB-436 cells, compared with DMSO blank sample, Fig. 1 B) is “significantly reduced”; in the assay on MCF-10A cell line (MCF-10A cells, cultured for 21 days, compared with DMSO blank sample, Fig. 1 B), “formed colonies at a normal level”.

For the origin of these results see patent EP4737452A1, “NOVEL PYRIMIDINE DERIVATIVES” (Aigen Sciences Inc., priority 2023, dated 2025).
